Experimental data from paper PMC10815170, “Exploring the Blood Glucose-Lowering Potential of the Umami Peptides LADW and EEAEGT Derived from Tuna Skeletal Myosin: Perspectives from α-Glucosidase Inhibition and Starch Interaction” (Foods, 2024).
Peptide text beside a SMILES is read from it.

How the values were obtained:
[1] = biological target: T1, α-Glucosidase from Saccharomyces cerevisiae (Saccharomyces cerevisiae, UniProt P53341); test: α-Glucosidase inhibitory activity (pNPG); format: biochemical; settings: PBS pH 6.8, 37 °C, 405 nm; for α-glucosidase inhibitory rate: 10 mM peptide, pNPG, n = 3; for IC50: 15 min preincubation, pNPG 15 min, mean ± SD (n = 3), read-out: IC50 value, α-glucosidase inhibition
T1 construct: purchased Yuanye Bio-Technology Co., Ltd. (Shanghai, China)
Description: α-Glucosidase from Saccharomyces cerevisiae (activity ≥ 30 U/mg) and porcine bile salt (purity ≥ 60.0%) were obtained from Yuanye Bio-Technology Co., Ltd. (Shanghai, China). Pepsin (activity ≥ 800 U/mg), pancreatin (activity ≥ 4000 U/g), and amyloglucosidase (activity ≥ 10,000 U/g) were obtained from Shanghai Ryon Biological Technology Co., Ltd. The p-nitrobenzene-α-D-glucopyranoside (pNPG, purity ≥ 99.0%) was purchased from Sigma-Aldrich (Shanghai, China). Peptides LADW and EEAEGT (purity ≥ 98.0%) were synthesized by ALL PEPTIDE Biology Co., Ltd. (Hangzhou, China). All other chemicals and solvents were of analytical grade.
α-Glucosidase inhibitory activity was determined following the method of Zheng et al., with slight modifications. Briefly, 80.0 μL of phosphate-buffered saline (PBS, pH = 6.8), 20.0 μL of α-glucosidase (7 U/mL, dissolved in PBS), and 20.0 μL of the peptide (dissolved in PBS) were mixed and incubated at 37 °C for 15 min. Subsequently, 20.0 μL of pNPG (2.5 mM, dissolved in PBS) was added to the mixture, followed by another incubation at 37 °C for 15 min. To terminate the reaction, 60 μL of Na2CO3 (0.2 M, dissolved in PBS) was added, and the absorbance was measured at 405 nm using a SpectraMax M5 microplate reader (Molecular Devices, Sunnyvale, CA, USA). The α-glucosidase inhibitory rate (%) was determined using the following formula:α-glucosidase inhibitory rate (%) = [1 − (Asample − Asample blank)/(Acontrol − Acontrol blank)] × 100 where Asample and Asample blank were the absorbance values with and without α-glucosidase added, respectively; Acontrol and Acontrol blank were the absorbance values with and without peptide solution added, respectively, after replacing α-glucosidase solution with PBS solution. The above solution without addition was replaced by PBS solution.

[2] = sensory evaluation in previous work; ref [7]; cited from earlier work
Description: The intestinal stability, non-toxicity, and absorbability of peptides were considered important indicators for identifying bioactive peptides. In our previous work, these peptides were also confirmed to be non-toxic by sensory evaluation, and the peptides LADW and […] were obtained by hydrolysis with three common enzymes (pepsin, trypsin, and chymotrypsin) in the GI tract. […] Therefore, the potential α-GIPs identified in this study were presumed to withstand hy ...

[3] = set-up: method as in PMID 8001624; settings: clinical practice; ref [3]; cited from earlier work
[4] = sensory evaluation in previous work; ref [7]; cited from earlier work; remark: listed apart in the source
Description: Table 1 Prediction results of physicochemical properties and potential activity of peptides. | column: Umami Threshold (mg/mL)

T1 sequence (P53341 whole entry): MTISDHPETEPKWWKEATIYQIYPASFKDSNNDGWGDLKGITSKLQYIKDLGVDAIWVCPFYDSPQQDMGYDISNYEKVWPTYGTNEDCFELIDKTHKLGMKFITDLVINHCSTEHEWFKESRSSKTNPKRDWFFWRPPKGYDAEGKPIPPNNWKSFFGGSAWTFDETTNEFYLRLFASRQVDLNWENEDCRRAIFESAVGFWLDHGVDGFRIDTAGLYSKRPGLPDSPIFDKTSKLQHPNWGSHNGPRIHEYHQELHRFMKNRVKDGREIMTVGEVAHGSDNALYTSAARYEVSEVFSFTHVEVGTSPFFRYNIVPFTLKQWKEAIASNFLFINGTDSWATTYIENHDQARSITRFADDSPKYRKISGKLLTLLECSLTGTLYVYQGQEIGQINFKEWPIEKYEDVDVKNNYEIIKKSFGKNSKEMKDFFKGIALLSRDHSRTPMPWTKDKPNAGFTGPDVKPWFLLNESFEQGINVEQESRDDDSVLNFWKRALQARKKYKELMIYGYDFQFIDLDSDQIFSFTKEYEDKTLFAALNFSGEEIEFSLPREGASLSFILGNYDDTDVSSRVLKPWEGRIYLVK

Molecule	α-glucosidase inhibitory rate [1]	IC50 [1]	Toxicity [2]	Adverse effects [3]	Umami Threshold [4]
C[C@H](NC(=O)[C@H](CCC(=O)O)NC(=O)[C@@H](N)CCC(=O)O)C(=O)N[C@@H](CCC(=O)O)C(=O)NCC(=O)N[C@H](C(=O)O)[C@@H](C)O [EEAEGT] (H-EEAEGT-OH)	96.44%	6.46 ± 0.22 mM	non-toxic		
CC(C)C[C@H](N)C(=O)N[C@@H](C)C(=O)N[C@@H](CC(=O)O)C(=O)N[C@@H](Cc1c[nH]c2ccccc12)C(=O)O [LADW] (H-LADW-OH)	98.15%	4.4 ± 0.04 mM	non-toxic		
C[C@H]1O[C@H](O[C@H]2[C@H](O)[C@@H](O)[C@@H](O[C@H]3[C@H](O)[C@@H](O)C(O)O[C@@H]3CO)O[C@@H]2CO)[C@H](O)[C@@H](O)[C@@H]1N[C@H]1C=C(CO)[C@@H](O)[C@H](O)[C@H]1O (stereo partly drawn) [acarbose]				flatulence, diarrhea, and abdominal pain	
MEIDD [novel umami peptide identified in the hydrolysate of tuna skeletal myosin]					0.250 mg/mL
VAEQE [novel umami peptide identified in the hydrolysate of tuna skeletal myosin]					0.125 mg/mL
